Measured values reported in patent US20070213339A1 (Bayer Pharmaceuticals Corporation, priority 2004, published 2007).
pIC50: −log10 of the molar value.

Test system: Colo205 human colon carcinoma cell line
Assay: In vitro tumor cell proliferation assay (MTS, CellTiter 96 Aqueous One Solution)
Type: cell-based
Conditions: COLO 205, Colo205 cells, 72 hours compound exposure, MTS absorbance at 490 nm, read-out: IC50 (concentration of test compound required to inhibit proliferation of 50% of the cells)
In short: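 Colo205 cells seeded at 2000 cells/well in RPMI-1640 with 10% serum, exposed to compound for 72 h at 37 °C, 5% CO2, in a 5-point dose-response up to 10-20 μM. Viability read by MTS absorbance at 490 nm; IC50 from background-corrected percent inhibition by linear regression.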

Question: `COc1c(N2CCN(c3ccc(Cl)cc3)CC2)c(F)cc2c(=O)c(C(=O)O)cn(-c3ccc(CN4CCCCC4)cc3)c12` [Example 90, 7-[4-(4-chlorophenyl)piperazin-1-yl]-6-fluoro-8-methoxy-4-oxo-1-[4-(piperidin-1-ylmethyl)phenyl]-1,4-dihydroquinoline-3-carboxylic acid] was tested. Which pIC50 did it give?
Answer: The pIC50 was greater than 6.30.

Question: With `COc1c(N2CCN(c3ccccc3[N+](=O)[O-])CC2)c(F)cc2c(=O)c(C(=O)O)cn(-c3ccc(CN4CCCCC4)cc3)c12` [Example 91, 6-fluoro-8-methoxy-7-[4-(2-nitrophenyl)-piperazin-1-yl]-4-oxo-1-[4-(piperidin-1-ylmethyl)phenyl]-1,4-dihydroquinoline-3-carboxylic acid] as the compound, how does the pIC50 read?
Answer: Its pIC50 is 5.70 to 6.30.

Question: How did the pIC50 turn out when `COc1c(N2CCN(c3ccccn3)CC2)c(F)cc2c(=O)c(C(=O)O)cn(-c3ccc(CN(C)C)cc3)c12` [Example 92, 1-{4-[(dimethylamino)methyl]phenyl}-6-fluoro-8-methoxy-4-oxo-7-(4-pyridin-2-ylpiperazin-1-yl)-1,4-dihydroquinoline-3-carboxylic acid] was run?
Answer: Its pIC50 is greater than 6.30.

Question: How did the pIC50 turn out when `COc1c(N2CCN(c3ccc(F)cc3)CC2)c(F)cc2c(=O)c(C(=O)O)cn(-c3ccc(CN(C)C)cc3)c12` [Example 93, 1-{4-[(dimethylamino)methyl]phenyl}-6-fluoro-7-[4-(4-fluorophenyl)piperazin-1-yl]-8-methoxy-4-oxo-1,4-dihydroquinoline-3-carboxylic acid] was run?
Answer: Its pIC50 is greater than 6.30.

Question: With `COc1c(N2CCN(c3ccccc3F)CC2)c(F)cc2c(=O)c(C(=O)O)cn(-c3ccc(CN(C)C)cc3)c12` [Example 94, 1-{4-[(dimethylamino)methyl]phenyl}-6-fluoro-7-[4-(2-fluorophenyl)piperazin-1-yl]-8-methoxy-4-oxo-1,4-dihydroquinoline-3-carboxylic acid] as the compound, how does the pIC50 read?
Answer: The pIC50 was 5.70 to 6.30.

Question: `COc1c(N2CCN(c3ccccc3C#N)CC2)c(F)cc2c(=O)c(C(=O)O)cn(-c3ccc(CN(C)C)cc3)c12` [Example 95, 7-[4-(2-cyanophenyl)piperazin-1-yl]-1-{4-[(dimethylamino)methyl]phenyl}-6-fluoro-8-methoxy-4-oxo-1,4-dihydroquinoline-3-carboxylic acid] was tested. Which pIC50 did it give?
Answer: The pIC50 was 5.70 to 6.30.

Question: `COc1c(N2CCN(c3ncccn3)CC2)c(F)cc2c(=O)c(C(=O)O)cn(-c3ccc(CN(C)C)cc3)c12` [Example 96, 1-{4-[(dimethylamino)methyl]phenyl}-6-fluoro-8-methoxy-4-oxo-7-(4-pyrimidin-2-ylpiperazin-1-yl)-1,4-dihydroquinoline-3-carboxylic acid] was tested. Which pIC50 did it give?
Answer: The pIC50 was greater than 6.30.

Question: With `COc1c(N2CCN(c3ccccc3)CC2)c(F)cc2c(=O)c(C(=O)O)cn(-c3ccc(CN(C)C)cc3)c12` [Example 97, 1-{4-[(dimethylamino)methyl]phenyl}-6-fluoro-8-methoxy-4-oxo-7-(4-phenylpiperazin-1-yl)-1,4-dihydroquinoline-3-carboxylic acid] as the compound, how does the pIC50 read?
Answer: Its pIC50 is greater than 6.30.

Question: With `COc1c(N2CCN(c3cccc(Cl)c3)CC2)c(F)cc2c(=O)c(C(=O)O)cn(-c3ccc(CN(C)C)cc3)c12` [Example 98, 7-[4-(3-chlorophenyl)piperazin-1-yl]-1-{4-[(dimethylamino)methyl]phenyl}-6-fluoro-8-methoxy-4-oxo-1,4-dihydroquinoline-3-carboxylic acid] as the compound, how does the pIC50 read?
Answer: The pIC50 was greater than 6.30.

Question: With `COc1ccccc1N1CCN(c2c(F)cc3c(=O)c(C(=O)O)cn(-c4ccc(CN(C)C)cc4)c3c2OC)CC1` [Example 99, 1-{4-[(dimethylamino)methyl]phenyl}-6-fluoro-8-methoxy-7-[4-(2-methoxyphenyl)piperazin-1-yl]-4-oxo-1,4-dihydroquinoline-3-carboxylic acid] as the compound, how does the pIC50 read?
Answer: The pIC50 was 5.70 to 6.30.

Question: With `COc1c(N2CCN(c3ccc(C(F)(F)F)cc3)CC2)c(F)cc2c(=O)c(C(=O)O)cn(-c3ccc(CN(C)C)cc3)c12` [Example 100, 1-{4-[(dimethylamino)methyl]phenyl}-6-fluoro-8-methoxy-4-oxo-7-{4-[4-(trifluoromethyl)phenyl]piperazin-1-yl}-1,4-dihydroquinoline-3-carboxylic acid] as the compound, how does the pIC50 read?
Answer: The pIC50 was 4.70 to 5.70.

Question: With `COc1c(N2CCN(c3ccc(F)cc3F)CC2)c(F)cc2c(=O)c(C(=O)O)cn(-c3ccc(CN(C)C)cc3)c12` [Example 101, 7-[4-(2,4-difluorophenyl)piperazin-1-yl]-1-{4-[(dimethylamino)methyl]phenyl}-6-fluoro-8-methoxy-4-oxo-1,4-dihydroquinoline-3-carboxylic acid] as the compound, how does the pIC50 read?
Answer: Its pIC50 is 5.70 to 6.30.

Question: With `COc1c(N2CCN(c3ccc(C#N)cc3)CC2)c(F)cc2c(=O)c(C(=O)O)cn(-c3ccc(CN(C)C)cc3)c12` [Example 102, 7-[4-(4-cyanophenyl)piperazin-1-yl]-1-{4-[(dimethylamino)methyl]phenyl}-6-fluoro-8-methoxy-4-oxo-1,4-dihydroquinoline-3-carboxylic acid] as the compound, how does the pIC50 read?
Answer: The pIC50 was greater than 6.30.

Question: `COc1c(N2CCN(c3ccc(C(C)=O)cc3)CC2)c(F)cc2c(=O)c(C(=O)O)cn(-c3ccc(CN(C)C)cc3)c12` [Example 103, 7-[4-(4-acetylphenyl)piperazin-1-yl]-1-{4-[(dimethylamino)methyl]phenyl}-6-fluoro-8-methoxy-4-oxo-1,4-dihydroquinoline-3-carboxylic acid] was tested. Which pIC50 did it give?
Answer: Its pIC50 is 5.70 to 6.30.

Question: How did the pIC50 turn out when `COc1c(N2CCN(c3ccccc3[N+](=O)[O-])CC2)c(F)cc2c(=O)c(C(=O)O)cn(-c3ccc(CN(C)C)cc3)c12` [Example 104, 1-{4-[(dimethylamino)methyl]phenyl}-6-fluoro-8-methoxy-7-[4-(2-nitrophenyl)piperazin-1-yl]-4-oxo-1,4-dihydroquinoline-3-carboxylic acid] was run?
Answer: The pIC50 was 4.70 to 5.70.

Question: `CCN(CC)Cc1ccc(-n2cc(C(=O)O)c(=O)c3cc(F)c(N4CCN(c5ccc(F)cc5)CC4)c(OC)c32)cc1` [Example 105, 1-{4-[(diethylamino)methyl]phenyl}-6-fluoro-7-[4-(4-fluorophenyl)piperazin-1-yl]-8-methoxy-4-oxo-1,4-dihydroquinoline-3-carboxylic acid] was tested. Which pIC50 did it give?
Answer: Its pIC50 is greater than 6.30.

Question: `CCN(CC)Cc1ccc(-n2cc(C(=O)O)c(=O)c3cc(F)c(N4CCN(c5ncccn5)CC4)c(OC)c32)cc1` [Example 106, 1-{4-[(diethylamino)methyl]phenyl}-6-fluoro-8-methoxy-4-oxo-7-(4-pyrimidin-2-ylpiperazin-1-yl)-1,4-dihydroquinoline-3-carboxylic acid] was tested. Which pIC50 did it give?
Answer: The pIC50 was greater than 6.30.

Question: How did the pIC50 turn out when `CCN(CC)Cc1ccc(-n2cc(C(=O)O)c(=O)c3cc(F)c(N4CCN(c5ccccc5[N+](=O)[O-])CC4)c(OC)c32)cc1` [Example 107, 1-{4-[(diethylamino)methyl]phenyl}-6-fluoro-8-methoxy-7-[4-(2-nitrophenyl)piperazin-1-yl]-4-oxo-1,4-dihydroquinoline-3-carboxylic acid] was run?
Answer: The pIC50 was 5.70 to 6.30.

Question: `CCN(CC)Cc1ccc(-n2cc(C(=O)O)c(=O)c3cc(F)c(N4CCN(c5ccc(C#N)cc5)CC4)c(OC)c32)cc1` [Example 108, 7-[4-(4-cyanophenyl)piperazin-1-yl]-1-{4-[(diethylamino)methyl]phenyl}-6-fluoro-8-methoxy-4-oxo-1,4-dihydroquinoline-3-carboxylic acid] was tested. Which pIC50 did it give?
Answer: Its pIC50 is greater than 6.30.

Question: `CCN(CC)Cc1ccc(-n2cc(C(=O)O)c(=O)c3cc(F)c(N4CCN(c5ccccc5Cl)CC4)c(OC)c32)cc1` [Example 109, 7-[4-(2-chlorophenyl)piperazin-1-yl]-1-{4-[(diethylamino)methyl]phenyl}-6-fluoro-8-methoxy-4-oxo-1,4-dihydroquinoline-3-carboxylic acid] was tested. Which pIC50 did it give?
Answer: Its pIC50 is 5.70 to 6.30.

Question: `CCN(CC)Cc1ccc(-n2cc(C(=O)O)c(=O)c3cc(F)c(N4CCN(c5ccccc5OC)CC4)c(OC)c32)cc1` [Example 110, 1-{4-[(diethylamino)methyl]phenyl}-6-fluoro-8-methoxy-7-[4-(2-methoxyphenyl)piperazin-1-yl]-4-oxo-1,4-dihydroquinoline-3-carboxylic acid] was tested. Which pIC50 did it give?
Answer: Its pIC50 is greater than 6.30.

Question: With `CCN(CC)Cc1ccc(-n2cc(C(=O)O)c(=O)c3cc(F)c(N4CCN(c5ccc(F)cc5F)CC4)c(OC)c32)cc1` [Example 111, 1-{4-[(diethylamino)methyl]phenyl}-7-[4-(2,4-difluorophenyl)piperazin-1-yl]-6-fluoro-8-methoxy-4-oxo-1,4-dihydroquinoline-3-carboxylic acid] as the compound, how does the pIC50 read?
Answer: The pIC50 was 5.70 to 6.30.

Question: `CCN(CC)Cc1ccc(-n2cc(C(=O)O)c(=O)c3cc(F)c(N4CCN(c5ccc(C(F)(F)F)cc5)CC4)c(OC)c32)cc1` [Example 112, 1-{4-[(diethylamino)methyl]phenyl}-6-fluoro-8-methoxy-4-oxo-7-{4-[4-(trifluoromethyl)phenyl]piperazin-1-yl}-1,4-dihydroquinoline-3-carboxylic acid] was tested. Which pIC50 did it give?
Answer: The pIC50 was 4.70 to 5.70.

Question: How did the pIC50 turn out when `CCN(CC)Cc1ccc(-n2cc(C(=O)O)c(=O)c3cc(F)c(N4CCN(c5ncccc5C#N)CC4)c(OC)c32)cc1` [Example 113, 7-[4-(3-cyanopyridin-2-yl)piperazin-1-yl]-1-{4-[(diethylamino)methyl]phenyl}-6-fluoro-8-methoxy-4-oxo-1,4-dihydroquinoline-3-carboxylic acid] was run?
Answer: The pIC50 was greater than 6.30.

Question: With `CCN(CC)Cc1ccc(-n2cc(C(=O)O)c(=O)c3cc(F)c(N4CCN(c5ccccc5F)CC4)c(OC)c32)cc1` [Example 114, 1-{4-[(diethylamino)methyl]phenyl}-6-fluoro-7-[4-(2-fluorophenyl)piperazin-1-yl]-8-methoxy-4-oxo-1,4-dihydroquinoline-3-carboxylic acid] as the compound, how does the pIC50 read?
Answer: The pIC50 was greater than 6.30.

Question: How did the pIC50 turn out when `CCN(CC)Cc1ccc(-n2cc(C(=O)O)c(=O)c3cc(F)c(N4CCN(c5cccc(Cl)c5)CC4)c(OC)c32)cc1` [Example 115, 7-[4-(3-chlorophenyl)piperazin-1-yl]-1-{4-[(diethylamino)methyl]phenyl}-6-fluoro-8-methoxy-4-oxo-1,4-dihydroquinoline-3-carboxylic acid] was run?
Answer: The pIC50 was greater than 6.30.

Question: How did the pIC50 turn out when `CCN(CC)Cc1ccc(-n2cc(C(=O)O)c(=O)c3cc(F)c(N4CCN(c5ccc(C(C)=O)cc5)CC4)c(OC)c32)cc1` [Example 116, 7-[4-(4-acetylphenyl)piperazin-1-yl]-1-{4-[(diethylamino)methyl]phenyl}-6-fluoro-8-methoxy-4-oxo-1,4-dihydroquinoline-3-carboxylic acid] was run?
Answer: The pIC50 was greater than 6.30.
